Results published in patent US12655116B2, “Substituted isophthalic acid diamides” (Bayer Aktiengesellschaft, priority 2020, dated 2026).

Columns and labels:
[1] = test system: ABUTH; assay: Pre-emergence herbicidal action against ABUTH; assay type: in vivo, Abutilon theophrasti; conditions: for pest or weed control at 80 g/ha / pest or weed control at 20 g/ha: Abutilon theophrasti, 504 h; for pest or weed control at 20 g/ha: read-out: Pre-emergence action against ABUTH (herbicidal activity in percent)
In short: (§1)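 Pre-emergence soil-surface spray of formulated compound (WP or EC; 600 to 800 l/ha; 0.2% wetting agent) over seeds sown in sandy loam. After 3 weeks under greenhouse conditions, damage is estimated visually in percent against untreated plants.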

[2] = test system: ALOMY; assay: Pre-emergence herbicidal action against ALOMY; assay type: in vivo, Alopecurus myosuroides
In short: as §1

[3] = test system: VIOTR; assay: Pre-emergence herbicidal action against VIOTR; assay type: in vivo, Viola tricolor
In short: as §1

[4] = test system: ABUTH; assay: Post-emergence herbicidal action against ABUTH; assay type: in vivo, Abutilon theophrasti; conditions: Abutilon theophrasti, 504 h, visual assessment about 3 weeks after treatment vs untreated controls
In short: (§2)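 Greenhouse plants in sandy loam were sprayed at the one-leaf stage, 2 to 3 weeks after sowing, with WP or EC formulations as aqueous suspension or emulsion (600 to 800 l/ha water, 0.2% wetting agent). Visual damage was scored about 3 weeks later versus untreated controls, 0% = like control, 100% = dead.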

[5] = test system: LOLRI; assay: Pre-emergence herbicidal action against LOLRI; assay type: in vivo, Lolium rigidum; conditions: 80 g/ha; for pest or weed control at 80 g/ha: Lolium rigidum, 504 h
Excerpt: Seeds of monocotyledonous and dicotyledonous weed plants and crop plants are laid out in sandy loam soil in wood-fiber pots and covered with soil. The compounds of the invention, formulated in the form of wettable powders (WP) or as emulsion concentrates (EC), are then applied to the surface of the covering soil in the form of an aqueous suspension or emulsion at a water application rate equivalent to 600 to 800 l/ha, with addition of 0.2% wetting agent. After the treatment, the pots are placed in a greenhouse and kept under good growth conditions for the trial plants. The damage to the test plants is scored visually after a test period of 3 weeks by comparison with untreated controls (herbicidal activity in percent (%): 100% activity=the plants have died, 0% activity=like control plants). […] The tables below illustrate, in an illustrative manner, the post-emergence herbicidal action of the compounds of the invention, the herbicidal activity being stated in percent.

[6] = test system: ECHCG; assay: Pre-emergence herbicidal action against ECHCG; assay type: in vivo, Echinochloa crus-galli; conditions: 80 g/ha; for pest or weed control at 80 g/ha: Echinochloa crus-galli, 504 h
In short: as §1

[7] = test system: MATIN; assay: Pre-emergence herbicidal action against MATIN; assay type: in vivo, Matricaria inodora; conditions: for pest or weed control at 20 g/ha / pest or weed control at 80 g/ha: Tripleurospermum inodorum, 504 h
In short: as §1

[8] = test system: VERPE; assay: Pre-emergence herbicidal action against VERPE; assay type: in vivo, Veronica persica; conditions: Veronica persica, 504 h, dosage 80 g/ha
In short: as §1

[9] = test system: ALOMY; assay: Post-emergence herbicidal action against ALOMY; assay type: in vivo, Alopecurus myosuroides; conditions: visual assessment about 3 weeks after treatment vs untreated controls; for pest or weed control at 5 g/ha / pest or weed control at 20 g/ha: Alopecurus myosuroides, 504 h
In short: as §2

[10] = test system: PHBPU; assay: Pre-emergence herbicidal action against PHBPU; assay type: in vivo, Pharbitis purpurea; conditions: dosage 80 g/ha; for pest or weed control at 80 g/ha: Ipomoea purpurea, 504 h
In short: as §1

[11] = test system: AMARE; assay: Post-emergence herbicidal action against AMARE; assay type: in vivo, Amaranthus retroflexus; conditions: Amaranthus retroflexus, 504 h, 20 g/ha, visual assessment about 3 weeks after treatment, 100% = plants have died, 0% = like control plants
In short: as §2

[12] = test system: AVEFA; assay: Pre-emergence herbicidal action against AVEFA; assay type: in vivo, Avena fatua; conditions: 80 g/ha, pre-emergence; for pest or weed control at 80 g/ha: Avena fatua, 504 h
In short: as §1

[13] = test system: AMARE; assay: Pre-emergence herbicidal action against AMARE; assay type: in vivo, Amaranthus retroflexus; conditions: for pest or weed control at 20 g/ha / pest or weed control at 80 g/ha: Amaranthus retroflexus, 504 h
In short: as §1

[14] = test system: ECHCG; assay: Post-emergence herbicidal action against ECHCG; assay type: in vivo, Echinochloa crus-galli
In short: as §2

[15] = test system: DIGSA; assay: Pre-emergence herbicidal action against DIGSA; assay type: in vivo, Digitaria sanguinalis
In short: as §1

[16] = test system: SETVI; assay: Pre-emergence herbicidal action against SETVI; assay type: in vivo, Setaria viridis
In short: as §1

[17] = test system: MATIN; assay: Post-emergence herbicidal action against MATIN; assay type: in vivo, Matricaria inodora; conditions: Tripleurospermum inodorum, 504 h, dosage 20 g/ha
In short: as §2

[18] = test system: SETVI; assay: Post-emergence herbicidal action against SETVI; assay type: in vivo, Setaria viridis
In short: as §2

[19] = test system: VIOTR; assay: Post-emergence herbicidal action against VIOTR; assay type: in vivo, Viola tricolor
In short: as §2

[20] = 80 g/ha, scored visually after 3 weeks vs untreated controls (100% = plants have died, 0% = like control plants)
[21] = dosage 20 g/ha, scored visually after 3 weeks vs untreated controls, 100% = plants have died, 0% = like control plants
[22] = Alopecurus myosuroides, 504 h, 80 g/ha, pre-emergence, scored visually after 3 weeks vs untreated controls (100% = plants have died, 0% = like control plants)
[23] = Viola tricolor, 504 h, dosage 80 g/ha
[24] = 20 g/ha, scored visually after 3 weeks vs untreated controls, 100% = plants have died, 0% = like control plants
[25] = 80 g/ha, scored visually after 3 weeks vs untreated controls, 100% = plants have died, 0% = like control plants
[26] = Echinochloa crus-galli, 504 h, dosage 20 g/ha

CCCNC(=O)c1c(Br)ccc(C(=O)Nc2nnnn2CC)c1Cl [Example 2-184]
pest or weed control at 80 g/ha [1, 20]: 100% | pest or weed control at 20 g/ha [1, 21]: 100% | pest or weed control at 80 g/ha [2, 22]: 100% | pest or weed control at 20 g/ha ([2]; Alopecurus myosuroides, pre-emergence, 504 h, 20 g/ha, scored visually after 3 weeks, 100% = plants have died, 0% = like control plants): 90% | pest or weed control at 80 g/ha [3, 23]: 100% | pest or weed control at 5 g/ha ([4]; dosage 5 g/ha): 90% | pest or weed control at 20 g/ha ([4]; dosage 20 g/ha): 90% | pest or weed control at 80 g/ha [5]: 80% | pest or weed control at 80 g/ha [6]: 100% | pest or weed control at 20 g/ha ([7]; dosage 20 g/ha): 90% | pest or weed control at 80 g/ha ([7]; dosage 80 g/ha): 100% | pest or weed control at 80 g/ha [8]: 100% | pest or weed control at 5 g/ha ([9]; dosage 5 g/ha): 80% | pest or weed control at 20 g/ha ([9]; dosage 20 g/ha): 100% | pest or weed control at 80 g/ha [10]: 90% | pest or weed control at 20 g/ha [11]: 100% | pest or weed control at 80 g/ha [12]: 90% | pest or weed control at 20 g/ha [13, 24]: 100% | pest or weed control at 80 g/ha [13, 25]: 100% | pest or weed control at 20 g/ha [14, 26]: 100%

CCCNC(=O)c1c(C(F)(F)F)ccc(C(=O)Nc2nnnn2C)c1Cl [Example 1-136]
pest or weed control at 80 g/ha [1, 20]: 100% | pest or weed control at 20 g/ha [1, 21]: 90% | pest or weed control at 80 g/ha [2, 22]: 90% | pest or weed control at 20 g/ha ([15]; Digitaria sanguinalis, 504 h, dosage 20 g/ha): 100% | pest or weed control at 80 g/ha ([15]; Digitaria sanguinalis, 504 h, dosage 80 g/ha): 100% | pest or weed control at 20 g/ha ([3]; Viola tricolor, 504 h, dosage 20 g/ha): 90% | pest or weed control at 80 g/ha [3, 23]: 100% | pest or weed control at 80 g/ha ([16]; Setaria viridis, 504 h, dosage 80 g/ha): 80% | pest or weed control at 80 g/ha [5]: 90% | pest or weed control at 80 g/ha [6]: 90% | pest or weed control at 20 g/ha ([7]; dosage 20 g/ha): 90% | pest or weed control at 80 g/ha ([7]; dosage 80 g/ha): 100% | pest or weed control at 80 g/ha [8]: 90% | pest or weed control at 5 g/ha ([9]; dosage 5 g/ha): 80% | pest or weed control at 20 g/ha ([9]; dosage 20 g/ha): 90% | pest or weed control at 20 g/ha [17]: 80% | pest or weed control at 80 g/ha [10]: 80% | pest or weed control at 20 g/ha [11]: 90% | pest or weed control at 80 g/ha [12]: 80% | pest or weed control at 20 g/ha ([18]; Setaria viridis, 504 h, dosage 20 g/ha): 80% | pest or weed control at 20 g/ha [13, 24]: 100% | pest or weed control at 80 g/ha [13, 25]: 100% | pest or weed control at 5 g/ha ([14]; Echinochloa crus-galli, 504 h, dosage 5 g/ha): 80% | pest or weed control at 20 g/ha [14, 26]: 90%

Cn1nnnc1NC(=O)c1ccc(Br)c(C(=O)NCC(F)F)c1Cl [Example 1-182]
Pre-emergence action against ABUTH (herbicidal activity) [1, 20]: 100% | Pre-emergence action against ABUTH (herbicidal activity in percent) [1, 21]: 100% | Post-emergence action against VIOTR in % ([19]; 5 g/ha): 100% | Post-emergence action against VIOTR in % ([19]; 20 g/ha): 100% | Pre-emergence action against ALOMY ([2]; 20 g/ha, scored visually after 3 weeks, 100% = plants have died, 0% = like control plants): 80% | Pre-emergence action against ALOMY (herbicidal activity) ([2]; 80 g/ha, pre-emergence, scored visually after 3 weeks vs untreated controls (100% = plants have died, 0% = like control plants)): 100% | Pre-emergence action against DIGSA in % ([15]; dosage 20 g/ha): 100% | Pre-emergence action against DIGSA in % ([15]; dosage 80 g/ha): 100% | Pre-emergence action against VIOTR in % ([3]; dosage 20 g/ha): 90% | Pre-emergence action against VIOTR in % ([3]; dosage 80 g/ha): 100% | Pre-emergence action against SETVI in % ([16]; dosage 20 g/ha): 100% | Pre-emergence action against SETVI in % ([16]; dosage 80 g/ha): 100% | Pre-emergence action against LOLRI in % [5]: 80% | Pre-emergence action against ECHCG in % [6]: 100% | Pre-emergence action against MATIN in % ([7]; dosage 20 g/ha): 90% | Pre-emergence action against MATIN in % ([7]; dosage 80 g/ha): 100% | Post-emergence action against ALOMY in % ([9]; dosage 5 g/ha): 90% | Post-emergence action against ALOMY in % ([9]; dosage 20 g/ha): 100% | Pre-emergence action against PHBPU in % [10]: 90% | Pre-emergence action against AVEFA in % [12]: 90% | Post-emergence action against SETVI in % ([18]; dosage 5 g/ha): 90% | Post-emergence action against SETVI in % ([18]; dosage 20 g/ha): 100% | Pre-emergence action against AMARE in % [13, 24]: 100% | Pre-emergence action against AMARE in % [13, 20]: 100% | Post-emergence action against ECHCG in % ([14]; dosage 20 g/ha): 80%
